Patent publication US12077503B2, “Substituted cyclic amides and their use as herbicides” (FMC CORPORATION, priority 2015, dated 2024)

Tests used:
Assay type in all cases: in vivo
[1] = system: ducksalad (Heteranthera limosa); assay: Test B flooded paddy test; conditions: Heteranthera limosa, 250 g ai/ha, Flood; 0 to 100 scale where 0 is no effect and 100 is complete control; read-out: Ducksalad plant response rating
In short: (§1)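 Evaluation by eye, against controls, occurred 13–15 d post-treatment in a greenhouse, using a 0 (no effect) to 100 (complete control) scale. Application was into the paddy water, 3 cm deep over the soil, on 2-leaf plants.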

rice (Oryra sativa) = assay: Test B flooded paddy test; conditions: Oryza sativa, 250 g ai/ha, Flood; 0 to 100 scale where 0 is no effect and 100 is complete control; read-out: Rice plant response rating
In short: as §1

[2] = system: sedge, umbrella (small-flower umbrella sedge, Cyperus difformis); assay: Test B flooded paddy test; conditions: Cyperus difformis, 250 g ai/ha, Flood; 0 to 100 scale where 0 is no effect and 100 is complete control; read-out: Sedge, Umbrella plant response rating
In short: as §1

[3] = system: barnyardgrass (Echinochloa crus-galli); assay: Test B flooded paddy test; conditions: Echinochloa crus-galli, 250 g ai/ha, Flood; 0 to 100 scale where 0 is no effect and 100 is complete control; read-out: Barnyardgrass plant response rating
In short: as §1

[4] = system: wheat (Triticum aestivum); assay: Test A postemergence; conditions: Triticum aestivum, post-emergence, 240 h, postemergence; for plant injury at 125 g/ha: 125 g ai/ha, visual injury vs untreated controls after approx. 10 d, 0 = no effect, 100 = complete control, read-out: Wheat plant response rating (0 to 100 scale); for plant injury at 500 g/ha: 500 g ai/ha, 0 to 100 scale, 0 is no effect, 100 is complete control, read-out: Wheat plant response rating
In short: (§2)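 Greenhouse, ~10 d after spray; visual injury vs untreated controls, 0 = no effect, 100 = complete control. Preemergence: directed soil spray over planted seeds. Postemergence: plants 2–10 cm, 1–2 leaf stage. Loam/sand blend. Compound in non-phytotoxic solvent with surfactant.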

[5] = system: Galium (catchweed bedstraw, Galium aparine); assay: Test A postemergence; conditions: Galium, post-emergence, 240 h, postemergence; for pest or weed control at 125 g/ha: 125 g ai/ha, visual injury vs untreated controls after approx. 10 d, 0 = no effect, 100 = complete control, read-out: Galium plant response rating (0 to 100 scale); for pest or weed control at 500 g/ha: 500 g ai/ha, 0 to 100 scale, 0 is no effect, 100 is complete control, read-out: Galium plant response rating
In short: as §2

[6] = system: barnyardgrass (Echinochloa crus-galli); assay: Test A postemergence; conditions: Echinochloa crus-galli, post-emergence, 240 h, postemergence; for pest or weed control at 125 g/ha: 125 g ai/ha, visual injury vs untreated controls after approx. 10 d, 0 = no effect, 100 = complete control, read-out: Barnyardgrass plant response rating (0 to 100 scale); for pest or weed control at 500 g/ha: 500 g ai/ha, 0 to 100 scale, 0 is no effect, 100 is complete control, read-out: Barnyardgrass plant response rating
In short: as §2

[7] = system: giant foxtail (Setaria faberii); assay: Test A postemergence; conditions: Setaria faberi, post-emergence, 240 h, postemergence; for pest or weed control at 125 g/ha: 125 g ai/ha, visual injury vs untreated controls after approx. 10 d, 0 = no effect, 100 = complete control, read-out: Foxtail, Giant plant response rating (0 to 100 scale); for pest or weed control at 500 g/ha: 500 g ai/ha, 0 to 100 scale, 0 is no effect, 100 is complete control, read-out: Foxtail, Giant plant response rating
In short: as §2

Kochia (Kochia scoparia) = assay: Test A preemergence; conditions: Bassia scoparia, pre-emergence, 240 h, preemergence, 0 to 100 scale where 0 is no effect and 100 is complete control, read-out: Kochia plant response rating; for pest or weed control at 125 g/ha: 125 g ai/ha, visual injury rating, approximately 10 d; for pest or weed control at 500 g/ha: 500 g ai/ha
In short: as §2

[8] = system: pigweed (Amaranthus retroflexus); assay: Test A preemergence; conditions: Amaranthus retroflexus, pre-emergence, 240 h, preemergence, 0 to 100 scale where 0 is no effect and 100 is complete control, read-out: Pigweed plant response rating; for pest or weed control at 125 g/ha: 125 g ai/ha, visual injury rating, approximately 10 d; for pest or weed control at 500 g/ha: 500 g ai/ha
[9] = system: ragweed (common ragweed, Ambrosia elatior); assay: Test A preemergence; conditions: Ambrosia artemisiifolia, pre-emergence, 240 h, preemergence, 0 to 100 scale where 0 is no effect and 100 is complete control, read-out: Ragweed plant response rating; for pest or weed control at 125 g/ha: 125 g ai/ha, visual injury rating, approximately 10 d; for pest or weed control at 500 g/ha: 500 g ai/ha
In short: as §2

[10] = system: barnyardgrass (Echinochloa crus-galli); assay: Test A preemergence; conditions: Echinochloa crus-galli, pre-emergence, 240 h, preemergence, 0 to 100 scale where 0 is no effect and 100 is complete control, read-out: Barnyardgrass plant response rating; for pest or weed control at 125 g/ha: 125 g ai/ha, visual injury rating, approximately 10 d; for pest or weed control at 500 g/ha: 500 g ai/ha
In short: as §2

[11] = system: ryegrass, Italian (Italian ryegrass, Lolium multiflorum); assay: Test A preemergence; conditions: Lolium multiflorum, pre-emergence, 240 h, preemergence, 0 to 100 scale where 0 is no effect and 100 is complete control, read-out: Ryegrass, Italian plant response rating; for pest or weed control at 125 g/ha: 125 g ai/ha, visual injury rating, approximately 10 d; for pest or weed control at 500 g/ha: 500 g ai/ha
In short: as §2

[12] = system: giant foxtail (Setaria faberii); assay: Test A preemergence; conditions: Setaria faberi, pre-emergence, 240 h, preemergence, 0 to 100 scale where 0 is no effect and 100 is complete control, read-out: Foxtail, Giant plant response rating; for pest or weed control at 125 g/ha: 125 g ai/ha, visual injury rating, approximately 10 d; for pest or weed control at 500 g/ha: 500 g ai/ha
In short: as §2

| SMILES | pest or weed control at 250 g/ha [1] [%] | pest or weed control at 250 g/ha (rice (Oryra sativa)) [%] | pest or weed control at 250 g/ha [2] [%] | pest or weed control at 250 g/ha [3] [%] | plant injury at 125 g/ha [4] [%] | pest or weed control at 125 g/ha [5] [%] | pest or weed control at 500 g/ha [5] [%] | pest or weed control at 125 g/ha [6] [%] | pest or weed control at 500 g/ha [6] [%] | pest or weed control at 125 g/ha [7] [%] | pest or weed control at 500 g/ha [7] [%] | pest or weed control at 125 g/ha (Kochia (Kochia scoparia)) [%] | pest or weed control at 500 g/ha (Kochia (Kochia scoparia)) [%] | pest or weed control at 125 g/ha [8] [%] | pest or weed control at 500 g/ha [8] [%] | pest or weed control at 125 g/ha [9] [%] | pest or weed control at 500 g/ha [9] [%] | pest or weed control at 125 g/ha [10] [%] | pest or weed control at 500 g/ha [10] [%] | pest or weed control at 125 g/ha [11] [%] | other results |
| --- | --- | --- | --- | --- | --- | --- | --- | --- | --- | --- | --- | --- | --- | --- | --- | --- | --- | --- | --- | --- | --- |
| CN1C[C@H](c2cc(F)cc(C(F)(F)F)c2)[C@@H](C(=O)Nc2cccc(F)c2F)C1=O [Compound 1214] | 100 | 15 | 60 | 70 | 70 | 60 | 60 | 90 | 90 | 90 | 90 | 50 | 60 | 60 | 70 | 0 | 70 | 90 | 90 | 60 | plant injury at 500 g/ha [4]: 80%; pest or weed control at 500 g/ha [11]: 90%; pest or weed control at 125 g/ha [12]: 90%; pest or weed control at 500 g/ha [12]: 90% |
| Cc1ccc([C@H]2CCN(C)C(=O)[C@@H]2C(=O)Nc2cccc(F)c2F)cc1 [Compound 1220] | 95 | 10 | 0 | 70 | 20 | 30 | 40 | 70 | 80 | 80 | 80 | 40 | 50 | 20 | 40 | 30 | 40 | 90 | 90 | 30 | plant injury at 500 g/ha [4]: 40%; pest or weed control at 500 g/ha [11]: 50%; pest or weed control at 125 g/ha [12]: 90%; pest or weed control at 500 g/ha [12]: 90% |
| CN1CC[C@H](c2ccc(C(F)(F)F)cc2)[C@@H](C(=O)Nc2cccc(F)c2F)C1=O [Compound 1225] | 100 | 20 | 0 | 80 | 30 | 50 | 70 | 90 | 90 | 90 | 90 | 60 | 70 | 30 | 50 | 50 | 60 | 90 | 90 | 20 | plant injury at 500 g/ha [4]: 70%; pest or weed control at 500 g/ha [11]: 40%; pest or weed control at 125 g/ha [12]: 90%; pest or weed control at 500 g/ha [12]: 90% |
| CSc1ccccc1NC(=O)[C@H]1C(=O)N(C)C[C@@H]1c1cccc(C)c1 [Compound 1232] | 95 | 0 | 0 | 55 | 0 | 20 | 60 | 80 | 80 | 80 | 90 | 70 | 80 | 70 | 90 | 60 | 80 | 90 | 90 | 20 | pest or weed control at 500 g/ha [11]: 60%; pest or weed control at 125 g/ha [12]: 90%; pest or weed control at 500 g/ha [12]: 90% |
| CN1C[C@H](c2ccc(F)c(Br)c2)[C@@H](C(=O)Nc2cccc(F)c2F)C1=O [Compound 1234] | 100 | 75 | 0 | 90 | 40 | 50 | 60 | 90 | 90 | 80 | 90 | 70 | 80 | 70 | 90 | 40 | 60 | 100 | 100 | 40 | pest or weed control at 500 g/ha [11]: 80%; pest or weed control at 125 g/ha [12]: 100%; pest or weed control at 500 g/ha [12]: 100% |
